Results published in paper PMC4200852, “Metabolism of Cryptic Peptides Derived from Neuropeptide FF Precursors: The Involvement of Insulin-Degrading Enzyme” (International Journal of Molecular Sciences, 2014).
Entries after “also recorded” stand apart in the source; their conditions may differ. Ends that are not written are not given here.

Assays:
[1] = tested on: IDE, His-Tag, rat, recombinant; assay: Proteolysis by insulin-degrading enzyme (IDE) in vitro, ESI-MS; format: in vitro ADME; conditions: 37 °C; for stability without IDE: no IDE
Text: Other peaks assigned to the same fragments with the addition of Na^+ and K^+ are not labelled for simplicity.
IDE, His-Tag, rat, recombinant, from Spodoptera frugiperda, was purchased from Calbiochem (Milan, Italy), and its activity was verified by carrying out enzymatic digestion of insulin solutions according to the experimental procedure previously reported. Methanol (MeOH), formic acid (FA), Tris–HCl buffer, phosphate buffered saline (PBS) buffer and all chemicals used were purchased from Sigma–Aldrich. ZIPTIP C18 was purchased from Millipore (Milan, Italy). IDE enzymatic assays were carried out by incubating the enzyme solution (0.4 μM) at 37 °C with the peptide solution at the indicated concentration. After purification with ZIPTIP C18, 3 μL of the resulting solution were mixed with 50 μL of water and 50 μL of MeOH and injected into the mass spectrometer at 5 μL/min. ESI-MS experiments were performed by using a Finnigan LCQ DECA XP PLUS ion trap spectrometer operating in the positive ion mode and equipped with an orthogonal ESI source (Thermo Electron Corporation, Madison, WI, USA). Sample solutions were injected into the ion source using nitrogen as the drying gas. The mass spectrometer operated with a capillary voltage of 46 V and capillary a temperature of 250 °C, while the spray voltage was 4.3 kV. MS/MS data were interpreted by using the “Molecular Weight Calculator” software by Matthew Monroe freely available on the web.

[2] = NPNA metabolism by enzyme fractions separated from rat brain cortex homogenate, ESI-MS; format: in vitro ADME, male Wistar rats; conditions: for peptide fragment (sequence) formed: 120 min
Description: Brain cortices were rapidly removed from the male Wistar rats (150–200 g) and frozen immediately on dry ice. Tissues were kept at −80 °C until assayed. Brain was homogenized in an ice-cold 20 mM Tris–HCl buffer, pH 7.5, and diluted 1:6. The obtained homogenate was centrifuged twice at 14,000× g for 10 min at 4 °C.
Enzymes present in the rat brain homogenate were separated on the ion-exchange column Econo-Pac High Q (resin volume: 5 mL; Bio-Rad, Berkeley, CA, USA). Gradient separation was performed by the HPLC system Prominence LC-20 AD with a Photodiode Array Detector SPD-M20A (Shimadzu, Tokyo, Japan). The sample volume loaded on the column was 1 mL. The mobile phase consisted of 20 mM Tris–HCl buffer, pH 7.5, and a gradient of NaCl from 0 to 500 mM in 60 min was used. The total flow rate was 1 mL/min. One-point-five-milliliter fractions were collected during the separation and stored in −80 °C prior to further experiments.
Enzyme assays were performed in 0.5-mL Eppendorf tubes. Each homogenized brain fraction was diluted 1:5 with 20 mM Tris–HCl buffer, pH 7.5, and the reaction was initiated by the addition of 5 μg of NPNA and continued by mixing at 37 °C for 120 min (or for 300 min for preparing time course metabolic process). Five-microliter aliquots were taken from the incubation mixture, acidified by 30% MeOH with 0.1% FA and analyzed by ESI-MS (Bruker Esquire 3000) equipped with an autosampler (Famos, Thermo Scientific, earlier LC-Packings, Bremen, Germany). MS/MS analysis was performed to confirm the sequence of the released fragments. Quantitation of the enzyme activity was performed by integration of the peak area of formed products on the mass chromatogram. The samples were incubated with and without amastatin, an aminopeptidase inhibitor.

[3] = molecular target: T1, IDE (Rattus norvegicus, UniProt P35559); assay: Surface Plasmon Resonance (SPR) OneStep binding to immobilized IDE; conditions: comparison among the peptides tested
T1 construct: His-Tag; purchased Calbiochem (Milan, Italy); host or cells: Spodoptera frugiperda
T1 sequence (P35559 1-1019): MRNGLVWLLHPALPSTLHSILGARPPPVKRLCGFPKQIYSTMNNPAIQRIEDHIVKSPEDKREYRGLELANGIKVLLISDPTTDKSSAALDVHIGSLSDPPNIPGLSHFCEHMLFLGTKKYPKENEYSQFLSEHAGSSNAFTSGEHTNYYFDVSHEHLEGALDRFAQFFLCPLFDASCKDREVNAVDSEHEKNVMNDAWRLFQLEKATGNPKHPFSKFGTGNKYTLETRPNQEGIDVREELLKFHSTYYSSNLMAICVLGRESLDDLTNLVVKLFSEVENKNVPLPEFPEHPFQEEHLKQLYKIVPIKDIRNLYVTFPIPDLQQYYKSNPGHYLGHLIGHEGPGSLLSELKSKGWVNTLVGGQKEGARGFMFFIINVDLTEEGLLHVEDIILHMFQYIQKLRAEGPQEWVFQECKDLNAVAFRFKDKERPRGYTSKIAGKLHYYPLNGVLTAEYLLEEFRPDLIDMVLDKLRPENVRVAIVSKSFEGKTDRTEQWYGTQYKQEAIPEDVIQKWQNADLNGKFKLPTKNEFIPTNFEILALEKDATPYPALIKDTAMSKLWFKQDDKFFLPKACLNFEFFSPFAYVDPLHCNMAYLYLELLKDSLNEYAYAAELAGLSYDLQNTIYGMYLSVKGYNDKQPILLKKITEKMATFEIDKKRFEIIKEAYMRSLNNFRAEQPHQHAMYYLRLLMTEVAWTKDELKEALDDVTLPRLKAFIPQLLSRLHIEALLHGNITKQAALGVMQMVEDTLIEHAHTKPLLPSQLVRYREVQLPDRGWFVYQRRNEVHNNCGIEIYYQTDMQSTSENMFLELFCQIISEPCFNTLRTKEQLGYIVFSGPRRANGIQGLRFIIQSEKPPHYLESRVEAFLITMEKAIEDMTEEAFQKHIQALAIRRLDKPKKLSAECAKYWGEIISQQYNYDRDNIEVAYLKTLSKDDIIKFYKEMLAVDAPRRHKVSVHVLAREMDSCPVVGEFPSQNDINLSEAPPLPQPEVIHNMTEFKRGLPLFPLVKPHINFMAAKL

[4] = NPPW 1–25 degradation in rat brain homogenate, with and without amastatin, ESI-MS; format: in vitro ADME; conditions: NPPW 1–25, rat brain homogenate
Description: We then tested the degradation of NPPW 1–25 peptide after incubation with rat brain homogenate, with and without the addition of amastatin. The latter was added to exclude the activity of aminopeptidases that are abundant in CNS. Such activity is responsible, among others, for the inactivation of opioid peptides, by truncation of the N-terminal Tyr, thus preventing binding to opioid receptors. […] In Table 2, the assignment of the peptide fragments detected is reported, while in Figure 4, a quantitative detection of their amounts at different incubation times is also shown. […] A further proof of this thesis could be obtained by applying selective IDE inhibitors that could become more easily available in the near future.
Brain cortices were rapidly removed from the male Wistar rats (150–200 g) and frozen immediately on dry ice. Tissues were kept at −80 °C until assayed. Brain was homogenized in an ice-cold 20 mM Tris–HCl buffer, pH 7.5, and diluted 1:6. […]
Enzyme assays were performed in 0.5-mL Eppendorf tubes. […] Five-microliter aliquots were taken from the incubation mixture, acidified by 30% MeOH with 0.1% FA and analyzed by ESI-MS (Bruker Esquire 3000) equipped with an autosampler (Famos, Thermo Scientific, earlier LC-Packings, Bremen, Germany). […] Quantitation of the enzyme activity was performed by integration of the peak area of formed products on the mass chromatogram. […]

[5] = tested on: IDE; conditions: statement without data or reference; cited from earlier work
[6] = molecular target: T2, Insulin-degrading enzyme (IDE), His-Tag, rat, recombinant (rat, UniProt P35559 1-1019); assay: SPR; SensiQ Pioneer, OneStep approach; IDE immobilised by amine coupling on a COOH5 chip; peptides in solution (initial concentrations NPSA 74 uM, NPNA 74 uM, NPPW 150 uM); 0.01 M HEPES, 0.15 M NaCl, pH 7.4; fitted with Qdat, one binding site model for NPNA, two binding site model for NPSA and NPPW; conditions: both partners purified
T2 construct: Insulin-degrading enzyme, rat, recombinant with His-Tag; Bought protein; immobilised by amine coupling for SPR; source: bought: Calbiochem (recombinant, from Spodoptera frugiperda)
T2 sequence (looked up): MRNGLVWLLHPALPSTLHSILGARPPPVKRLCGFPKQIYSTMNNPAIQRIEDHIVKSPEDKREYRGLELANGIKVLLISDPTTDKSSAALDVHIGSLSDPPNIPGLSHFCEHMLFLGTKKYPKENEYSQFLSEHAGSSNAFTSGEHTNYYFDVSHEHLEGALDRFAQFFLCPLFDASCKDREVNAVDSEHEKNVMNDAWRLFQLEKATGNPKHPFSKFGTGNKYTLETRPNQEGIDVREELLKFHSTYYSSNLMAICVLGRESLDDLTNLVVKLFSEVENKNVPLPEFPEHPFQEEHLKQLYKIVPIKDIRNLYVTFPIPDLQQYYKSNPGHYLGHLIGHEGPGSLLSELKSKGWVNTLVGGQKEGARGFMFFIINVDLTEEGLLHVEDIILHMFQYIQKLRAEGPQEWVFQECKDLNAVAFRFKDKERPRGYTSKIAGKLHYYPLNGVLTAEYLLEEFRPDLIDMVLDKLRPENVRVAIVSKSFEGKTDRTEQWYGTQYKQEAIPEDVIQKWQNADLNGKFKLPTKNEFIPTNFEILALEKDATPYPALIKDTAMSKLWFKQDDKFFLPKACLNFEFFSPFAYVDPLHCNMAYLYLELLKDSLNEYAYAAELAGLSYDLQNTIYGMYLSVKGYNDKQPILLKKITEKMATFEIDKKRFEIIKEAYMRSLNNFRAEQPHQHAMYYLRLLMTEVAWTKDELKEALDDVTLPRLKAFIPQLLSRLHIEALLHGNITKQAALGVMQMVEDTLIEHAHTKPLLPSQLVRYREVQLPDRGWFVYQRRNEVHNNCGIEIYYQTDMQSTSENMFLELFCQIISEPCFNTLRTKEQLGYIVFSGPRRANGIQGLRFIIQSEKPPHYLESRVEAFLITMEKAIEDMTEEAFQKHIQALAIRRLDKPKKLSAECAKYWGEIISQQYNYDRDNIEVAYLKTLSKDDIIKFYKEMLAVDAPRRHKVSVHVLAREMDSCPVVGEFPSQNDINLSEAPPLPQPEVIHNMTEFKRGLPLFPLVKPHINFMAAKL

## NAWGPWSKEQLSPQA [NPNA, NAWGPWSKEQLSPQA]
[1]; NPNA incubated with IDE, up to 24 h, ESI-MS
  degradation by IDE: not cleaved by IDE; also recorded: IDE is not able to degrade NPNA; also recorded: not degraded by IDE; also recorded: does not produce any NPNA fragments at all incubation times investigated
[2]; Fraction 23, 37 °C, pH 7.5
  time of highest amount of main product 1–11: 4 h
[2]; Fraction 23 from Econo-Pac High Q, 5 μg NPNA, 20 mM Tris–HCl pH 7.5, 37 °C, ESI-MS
  peptide fragment (sequence) formed: SPQA
[2]; Fraction 26, 37 °C, pH 7.5
  main product, time course: SKEQL
[2]; Fraction 26 from Econo-Pac High Q, 5 μg NPNA, 20 mM Tris–HCl pH 7.5, 37 °C, ESI-MS
  peptide fragment (sequence) formed: NAW and GPW and SKEQL and SPQA
[2]; rat brain cortex fractions, 20 mM Tris–HCl pH 7.5, 37 °C, ESI-MS
  cleavage position by brain cortex proteases: mainly at the carboxyl side of the tryptophan and leucine; also recorded: mainly at the carboxyl side of tryptophan and leucine
[2]; time course, rat brain cortex fractions, 5 μg NPNA, 20 mM Tris–HCl pH 7.5, 37 °C, ESI-MS
  time of highest product intensity: 4 h

## SAWGSWSKEQLNPQA [NPSA, SAWGSWSKEQLNPQA]
[1]; 50 μM NPSA, 8 nM IDE, PBS, 2 h, ESI-MS
  main cleavage site by IDE: between Trp6 and Ser7
[1]; 50 μM NPSA, 8 nM IDE, PBS, 2 h, ESI-MS, confirmed by MS/MS
  fragments produced by IDE: SAWGSW; also recorded: SKEQLNPQA
[1]; 50 μM NPSA, 8 nM IDE, PBS, 2 h, ESI-MS, listed as NPSA 1–15
  main cleavage site by IDE: Trp6–Ser7
[1]; 50 μM NPSA, PBS, 2 h, ESI-MS
  stability without IDE: only the full-length peptide is detected
[1]; (IDE) = 1/6000 (NPSA), disappearance of NPSA molecular peak, 50 μM NPSA, PBS, ESI-MS
  time to complete degradation by IDE: two

## PQRFGRNAWGPWSKEQLSPQAREFW [NPPW 1–25]
[3]
  relative KD for both binding sites: lowest KD values for both binding sites
[1]; 50 μM NPPW 1–25, 8 nM IDE, PBS, 8 h, ESI-MS
  cleavage sites by IDE: Gly5–Arg6, Ala8–Trp9, Gly10–Pro11 and Gln20–Ala21
[1]; 50 μM NPPW 1–25, 8 nM IDE, PBS, 8 h, ESI-MS, MS/MS
  fragments produced by IDE: WGPWSKEQLSPQ; also recorded: PQRFGRNAWGPWSKEQLSPQ at high abundance
[1]; 50 μM NPPW 1–25, 8 nM IDE, PBS, ESI-MS
  major cleavage site by IDE: Gln20–Ala21
[1]; 50 μM NPPW 1–25, PBS, 8 h, ESI-MS
  stability without IDE: only the full-length peptide is detected
[1]; NPPW 1–25, more than 2 h, data not shown
  fragment generated only at longer incubation times with IDE: PWSKEQLSPQAREFW
[1]; NPPW 1–25 with IDE, ESI-MS
  most abundant fragment produced by IDE: PQRFGRNAWGPWSKEQLSPQ
[4]
  major cleavage site: Gln20–Ala21
  most abundant peptide fragment: NPPW 1–20

## CC(C)C[C@@H](N)[C@H](O)C(=O)N[C@H](C(=O)N[C@H](C(=O)N[C@@H](CC(=O)O)C(=O)O)C(C)C)C(C)C [amastatin, reference compound]
[5]
  inhibition of IDE: not inhibited by amastatin

B1: NPNA (NAWGPWSKEQLSPQA {1-15}) (peptide)
peptide: NAWGPWSKEQLSPQA
notes: NPNA, residues 85-99 of rat pro-NPFFA (neuropeptide FF precursor); also called NPNA 1-15; source: synthetic peptide (Fmoc solid phase synthesis, purified by HPLC)
[6]
  Kd: 3.98 mM
